Here are results for three molecules from ChEMBL document CHEMBL2073852, “Transport of fluorescein methotrexate by multidrug resistance-associated protein 3 in IEC-6 cells” (Am J Physiol Gastrointest Liver Physiol, 2003).

What all share (format): functional, cell membranes, Membrane vesicle
The target of series [1] is ATP-binding cassette sub-family C member 3 (Rattus norvegicus, UniProt O88563). Nature of the series: TP_TRANSPORTER: inhibition of F-MTX uptake (F-MTX: 5.0 uM, E217betaG: 75.0 uM) in membrane vesicles from IEC-6 cells. Also noted: scale not given: the % may be the effect or the level left. The following applies: iec-6, 75 µM.
For series [2], the target named is T1, Mrp3 (ATP-binding cassette sub-family C member 3, ABCC3) (Rattus norvegicus, UniProt O88563). The series is described as follows: TP_TRANSPORTER: inhibition of F-MTX uptake (F-MTX: 5.0 uM, E217betaG: 75.0 uM) in membrane vesicles from Mrp3-Sf9 cells. Also noted: scale not given: the % may be the effect or the level left. The conditions noted are these: membrane vesicles from Mrp3-expressing Sf9 cells, probe F-MTX; read-out: Activity.

For series [3], the target named is T1, Mrp3 (ATP-binding cassette sub-family C member 3, ABCC3). Nature of the series: TP_TRANSPORTER: inhibition of F-MTX uptake (F-MTX: 5.0 uM, MK-571: 100.0 uM) in membrane vesicles from Mrp3-Sf9 cells. Also noted: scale not given: the % may be the effect or the level left. The following applies: membrane vesicles from Mrp3-expressing Sf9 cells, probe F-MTX; read-out: Activity.

For series [4] the target is unchanged. The series is described as follows: TP_TRANSPORTER: inhibition of F-MTX uptake (F-MTX: 5.0 uM, MK-571: 100.0 uM) in membrane vesicles from IEC-6 cells. Also noted: scale not given: the % may be the effect or the level left. The conditions noted are these: probe F-MTX, read-out: Activity.
Substrate in series [5]: CN(Cc1cnc2nc(N)nc(N)c2n1)c1ccc(C(=O)N[C@@H](CCC(=O)O)C(=O)O)cc1
Nature of the series: TP_TRANSPORTER: uptake in membrane vesicles from IEC-6 cells.

Substrate in series [6]: CN(Cc1cnc2nc(N)nc(N)c2n1)c1ccc(C(=O)N[C@@H](CCC(=O)O)C(=O)O)cc1
The series is described as follows: TP_TRANSPORTER: uptake in membrane vesicles from Mrp3-Sf9 cells.

In series [1], `C[C@]12CC[C@@H]3c4ccc(O)cc4CC[C@H]3[C@@H]1CC[C@@H]2O[C@@H]1O[C@H](C(=O)O)[C@@H](O)[C@H](O)[C@H]1O` [ESTRADIOL 17B GLUCURONIDE] gave an Activity of 41.7%. Also, in series [2], the activity at 75 µM is 19.2%.

For the molecule `CN(C)C(=O)CCSC(SCCC(=O)O)c1cccc(/C=C/c2ccc3ccc(Cl)cc3n2)c1` (stereo unspecified) [MK-571], the activity at 100 µM is 4.9% in series [3] and 9.5% in series [4].

B1: ATP-binding cassette sub-family C member 3 (Rattus norvegicus) (protein)
chain: MDRLCGSGELGSKFWDSNLTVYTNTPDLTPCFQNSLLAWVPCIYLWAALPCYLFYLRHHRLGYIVLSCLSRLKTALGVLLWCISWVDLFYSFHGLVHGSSPAPVFFITPLLVGITMLLATLLIQYERLRGVRSSGVLIIFWLLCVICAIIPFRSKILLALAEGKILDPFRFTTFYIYFALVLCAFILSCFQEKPPLFSPENLDTNPCPEASAGFFSRLSFWWFTKLAILGYRRPLEDSDLWSLSEEDCSHKVVQRLLEAWQKQQTQASGPQTAALEPKIAGEDEVLLKARPKTKKPSFLRALVRTFTSSLLMGACFKLIQDLSPSSTHSCSASSSGLFRPHGPYWWGFLLAGLMFVSSTMQTLILHQHYHCIFVMALRIRTAIIGVIYRKALTITNSVKREYTVGEMVNLMSVDAQRFMDVSPFINLLWSAPLQVILAIYFLWQILGPSALAGVAVIVLLIPLNGAVSMKMKTYQVQQMKFKDSRIKLMSEILNGIKVLKLYAWEPTFLEQVEGIRQGELQLLRKGAYLQAISTFIWVCTPFMVTLITLGVYVCVDKNNVLDAEKAFVSLSLFNILKIPLNLLPQLISGMTQTSVSLKRIQDFLNQDELDPQCVERKTISPGRAITIHNGTFSWSKDLPPTLHSINIQIPKGALVAVVGPVGCGKSSLVSALLGEMEKLEGAVSVKGSVAYVPQQAWIQNCTLQENVLFGQPMNPKRYQQALETCALLADLDVLPGGDQTEIGEKGINLSGGQRQRVSLARAVYSDANIFLLDDPLSAVDSHVAKHIFDQVIGPEGVLAGKTRVLVTHGISFLPQTDFIIVLADGQITEMGHYSELLQHDGSFANFLRNYAPDENQEANEGVLQHANEEVLLLEDTLSTHTDLTDTEPAIYEVRKQFMREMSSLSSEGEGQNRPVLKRYTSSLEKEVPATQTKETGALIKEEIAETGNVKLSVYWDYAKSVGLCTTLFICLLYAGQNAVAIGANVWLSAWTNDVEEHGQQNNTSVRLGVYATLGILQGLLVMLSAFTMVVGAIQAARLLHTALLHNQIRAPQSFFDTTPSGRILNRFSKDIYVIHEVLAPTILMLFNSFYTSISTIVVIVASTPLFCVVVLPLAVFYGFVQRFYVATSRQLKRLESVSRSPIFSHFSETVTGTSVIRAYGRVQDFKVLSDAKVDSNQKTTYPYIASNRWLGVHVEFVGNCVVLFSALFAVIGRNSLNPGLVGLSVSYALQVTLSLNWMIRTLSDLESNIIAVERVKEYSKTETEAPWVLESNRAPEGWPRSGVVEFRNYSVRYRPGLELVLKNLTLHVQGGEKVGIVGRTGAGKSSMTLCLFRILEAAEGEIFIDGLNVAHIGLHDLRSQLTIIPQDPILFSGTLRMNLDPFGRYSDEDIWRTLELSHLSAFVSSQPTGLDFQCSEGGDNLSVGQRQLVCLARALLRKSRVLVLDEATAAIDLETDDLIQGTIRTQFEDCTVLTIAHRLNTIMDYNRVLVLDKGVVAEFDSPVNLIAAGGIFYGMAKDAGLA
As for B1, the Km in series [5] worked out at 11.7 µM; in series [6], 4.5 µM.

Usually Km stands for the substrate concentration at which the rate is half of its maximum.
